Assay results from patent US9302988B2, “Fluoromethyl-substituted pyrrole carboxamides” (GRÜNENTHAL GMBH, priority 2012, dated 2016).

These molecules were tested against T1, Human CaV2.2 channels (Homo sapiens, UniProt Q00975) (assay: Fluorescent assay for CaV2.2 channels using potassium depolarization to induce channel opening (FLIPR, Fluo-4)). Details: 3 μM test compound, 30 mM KCl, HEK293 cells stably expressing human CaV2.2; read-out: %-Inhib (CaV2.2) @3 μM @30 mM KCl.
T1 construct: expressed in transfected cells
T1 sequence (Q00975 whole entry): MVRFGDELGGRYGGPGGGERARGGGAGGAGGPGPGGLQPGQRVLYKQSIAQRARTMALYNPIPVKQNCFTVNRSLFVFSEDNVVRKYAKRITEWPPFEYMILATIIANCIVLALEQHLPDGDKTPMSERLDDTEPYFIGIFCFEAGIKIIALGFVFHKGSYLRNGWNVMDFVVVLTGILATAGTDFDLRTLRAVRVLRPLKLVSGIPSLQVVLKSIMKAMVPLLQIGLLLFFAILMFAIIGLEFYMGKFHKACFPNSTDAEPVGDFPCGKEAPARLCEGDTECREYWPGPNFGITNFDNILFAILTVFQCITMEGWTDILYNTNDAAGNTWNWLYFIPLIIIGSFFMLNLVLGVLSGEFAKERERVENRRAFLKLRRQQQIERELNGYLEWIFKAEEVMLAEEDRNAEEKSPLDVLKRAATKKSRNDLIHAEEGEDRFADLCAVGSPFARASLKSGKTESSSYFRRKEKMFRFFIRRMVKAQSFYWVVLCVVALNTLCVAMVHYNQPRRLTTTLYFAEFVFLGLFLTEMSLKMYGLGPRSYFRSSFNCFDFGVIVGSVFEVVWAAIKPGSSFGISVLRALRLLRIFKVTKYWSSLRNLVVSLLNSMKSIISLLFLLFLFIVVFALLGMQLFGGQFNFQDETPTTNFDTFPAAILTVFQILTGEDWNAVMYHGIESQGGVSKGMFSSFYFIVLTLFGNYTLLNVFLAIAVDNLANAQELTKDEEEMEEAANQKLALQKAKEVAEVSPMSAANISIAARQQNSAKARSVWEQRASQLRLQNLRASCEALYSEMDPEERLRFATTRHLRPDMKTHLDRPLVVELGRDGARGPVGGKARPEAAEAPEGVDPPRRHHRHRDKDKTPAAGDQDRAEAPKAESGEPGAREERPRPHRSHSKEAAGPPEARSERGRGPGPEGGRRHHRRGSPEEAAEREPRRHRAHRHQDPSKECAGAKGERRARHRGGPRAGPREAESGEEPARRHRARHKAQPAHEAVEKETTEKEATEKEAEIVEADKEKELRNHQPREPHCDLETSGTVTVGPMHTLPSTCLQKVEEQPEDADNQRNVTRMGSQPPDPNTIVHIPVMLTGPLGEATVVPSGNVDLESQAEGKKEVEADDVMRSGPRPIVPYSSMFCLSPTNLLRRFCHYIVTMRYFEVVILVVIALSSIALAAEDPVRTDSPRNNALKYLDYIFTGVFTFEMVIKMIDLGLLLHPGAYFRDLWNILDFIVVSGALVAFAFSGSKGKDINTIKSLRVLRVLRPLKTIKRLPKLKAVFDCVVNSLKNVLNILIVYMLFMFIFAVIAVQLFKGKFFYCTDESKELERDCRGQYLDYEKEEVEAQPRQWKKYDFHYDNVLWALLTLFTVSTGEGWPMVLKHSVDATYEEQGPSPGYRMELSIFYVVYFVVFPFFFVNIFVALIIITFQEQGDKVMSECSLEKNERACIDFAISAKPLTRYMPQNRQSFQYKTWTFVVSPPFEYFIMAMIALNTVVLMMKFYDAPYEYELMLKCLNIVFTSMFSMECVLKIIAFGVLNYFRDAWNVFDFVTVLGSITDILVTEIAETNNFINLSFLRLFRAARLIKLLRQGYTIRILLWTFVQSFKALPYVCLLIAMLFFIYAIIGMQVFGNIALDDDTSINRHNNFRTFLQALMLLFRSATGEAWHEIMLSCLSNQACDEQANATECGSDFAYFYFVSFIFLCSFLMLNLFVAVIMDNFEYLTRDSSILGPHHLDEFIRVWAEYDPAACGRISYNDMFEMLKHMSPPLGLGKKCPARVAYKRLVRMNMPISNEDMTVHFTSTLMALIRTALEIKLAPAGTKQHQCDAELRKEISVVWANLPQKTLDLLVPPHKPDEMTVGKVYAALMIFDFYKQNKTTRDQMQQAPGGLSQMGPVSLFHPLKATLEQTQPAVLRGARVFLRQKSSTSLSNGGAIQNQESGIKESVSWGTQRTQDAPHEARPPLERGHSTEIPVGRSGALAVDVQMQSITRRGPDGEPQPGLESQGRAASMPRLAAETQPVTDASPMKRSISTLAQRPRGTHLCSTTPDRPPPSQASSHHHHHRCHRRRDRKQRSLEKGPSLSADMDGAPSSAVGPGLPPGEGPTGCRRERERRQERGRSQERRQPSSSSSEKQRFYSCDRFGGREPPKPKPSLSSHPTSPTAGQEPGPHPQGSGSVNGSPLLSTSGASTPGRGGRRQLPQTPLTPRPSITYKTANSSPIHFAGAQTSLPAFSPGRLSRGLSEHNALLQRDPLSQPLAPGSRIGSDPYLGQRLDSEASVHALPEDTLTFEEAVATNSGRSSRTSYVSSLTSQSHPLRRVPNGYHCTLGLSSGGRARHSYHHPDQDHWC
T1 sequence (P54289 25-1103, further chain): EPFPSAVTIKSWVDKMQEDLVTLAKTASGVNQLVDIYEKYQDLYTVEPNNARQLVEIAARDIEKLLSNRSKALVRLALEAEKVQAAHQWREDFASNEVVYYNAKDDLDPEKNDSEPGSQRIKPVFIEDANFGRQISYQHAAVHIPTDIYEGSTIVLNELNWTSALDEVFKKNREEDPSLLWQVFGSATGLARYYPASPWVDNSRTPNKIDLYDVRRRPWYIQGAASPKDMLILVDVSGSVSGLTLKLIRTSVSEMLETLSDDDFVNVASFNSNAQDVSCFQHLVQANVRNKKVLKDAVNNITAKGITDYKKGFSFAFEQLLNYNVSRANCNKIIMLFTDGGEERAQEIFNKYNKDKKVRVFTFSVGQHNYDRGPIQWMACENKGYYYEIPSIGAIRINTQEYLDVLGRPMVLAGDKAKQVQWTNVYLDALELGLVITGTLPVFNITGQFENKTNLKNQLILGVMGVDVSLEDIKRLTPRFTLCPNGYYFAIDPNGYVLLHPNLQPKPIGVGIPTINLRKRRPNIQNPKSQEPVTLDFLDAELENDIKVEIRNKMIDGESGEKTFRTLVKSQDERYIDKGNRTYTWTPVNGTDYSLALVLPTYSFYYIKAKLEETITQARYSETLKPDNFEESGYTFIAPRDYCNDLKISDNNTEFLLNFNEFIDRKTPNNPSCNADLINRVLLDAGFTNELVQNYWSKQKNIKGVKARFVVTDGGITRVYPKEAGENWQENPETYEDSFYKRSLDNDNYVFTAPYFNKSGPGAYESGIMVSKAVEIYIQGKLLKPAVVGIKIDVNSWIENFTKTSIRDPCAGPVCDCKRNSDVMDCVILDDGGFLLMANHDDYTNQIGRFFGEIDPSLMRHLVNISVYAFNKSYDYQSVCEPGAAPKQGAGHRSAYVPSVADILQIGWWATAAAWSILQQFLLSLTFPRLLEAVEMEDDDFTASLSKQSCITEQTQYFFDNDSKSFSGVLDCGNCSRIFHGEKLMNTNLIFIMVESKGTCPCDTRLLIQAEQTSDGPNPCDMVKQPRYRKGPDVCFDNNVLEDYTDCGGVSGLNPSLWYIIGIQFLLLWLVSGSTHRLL
T1 sequence (P54284 whole entry, further chain): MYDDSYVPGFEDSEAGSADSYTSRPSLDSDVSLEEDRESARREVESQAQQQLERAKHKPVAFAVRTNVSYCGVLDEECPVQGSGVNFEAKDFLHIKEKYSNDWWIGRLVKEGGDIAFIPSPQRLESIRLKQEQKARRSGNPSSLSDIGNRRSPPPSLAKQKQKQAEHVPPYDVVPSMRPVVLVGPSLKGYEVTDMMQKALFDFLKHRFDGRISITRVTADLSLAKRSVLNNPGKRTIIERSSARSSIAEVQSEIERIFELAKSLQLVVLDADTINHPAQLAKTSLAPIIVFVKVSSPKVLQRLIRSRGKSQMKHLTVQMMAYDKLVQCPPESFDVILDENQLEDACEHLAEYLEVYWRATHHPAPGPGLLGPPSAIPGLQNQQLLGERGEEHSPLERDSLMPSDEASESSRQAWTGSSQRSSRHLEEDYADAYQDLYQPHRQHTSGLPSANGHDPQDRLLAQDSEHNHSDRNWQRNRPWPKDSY
Assay type: cell-based
How it was run: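 Channel block was read as the baseline-normalized peak Ca²⁺ signal (Fluo-4, 480/535 nm) after a high-KCl depolarizing addition (210 mM KCl buffer). Beforehand, compound sat 15 min at 25 °C on HEK293 cells carrying human CaV2.2, α2δ/β subunits and Kir2.3, in pH 7.4 buffer with 30 mM KCl.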
For Cc1c(-c2ccc(Cl)cc2)c(C(=O)N(C)CC2CCCO2)n(Cc2ccccc2)c1C(F)(F)F (stereo not drawn) [SC-134, 1-Benzyl-3-(4-chlorophenyl)-N,4-dimethyl-N-(tetrahydro-furan-2-yl-methyl)-5-(trifluoromethyl)-1H-pyrrole-2-carboxylic acid amide], the inhibition at 3 µM was > 95%. With Cc1c(-c2ccc(Cl)cc2)c(C(=O)N(C)C2CC2)n(Cc2ccccc2)c1C(F)(F)F [SC-34, 1-Benzyl-3-(4-chlorophenyl)-N-cyclopropyl-N,4-dimethyl-5-(trifluoromethyl)-1H-pyrrole-2-carboxylic acid amide] the inhibition at 3 µM was > 95%. With Cc1cc(CN(C)C(=O)c2c(-c3ccc(Cl)cc3)cc(C(F)(F)F)n2Cc2ccccc2)no1 [SC-205, 1-Benzyl-3-(4-chlorophenyl)-N-methyl-N-[(5-methyl-isoxazol-3-yl)-methyl]-5-(trifluoromethyl)-1H-pyrrole-2-carboxylic acid amide] the inhibition at 3 µM was > 95%. Cc1c(-c2ccc(OCC(F)(F)F)cc2)c(C(=O)N2CCOCC2)n(Cc2ccccc2)c1C(F)(F)F [SC-263, [1-Benzyl-4-methyl-3-[4-(2,2,2-trifluoro-ethoxy)-phenyl]-5-(trifluoromethyl)-1H-pyrrol-2-yl]-morpholin-4-yl-methanone] was tested, and the inhibition at 3 µM was 75 to 95%. CN(CC(C)(C)C)C(=O)c1c(-c2ccc(Cl)cc2)c(S(C)(=O)=O)c(C(F)(F)F)n1Cc1ccccc1 [SC-259, 1-Benzyl-3-(4-chlorophenyl)-N-(2,2-dimethyl-propyl)-N-methyl-4-methylsulfonyl-5-(trifluoromethyl)-1H-pyrrole-2-carboxylic acid amide] was tested, and the inhibition at 3 µM was 75 to 95%. For Cc1c(-c2ccc(Cl)cc2)c(C(=O)N(C)CCC(C)(C)O)n(Cc2ccccc2)c1C(F)(F)F [SC-113, 1-Benzyl-3-(4-chlorophenyl)-N-(3-hydroxy-3-methyl-butyl)-N,4-dimethyl-5-(trifluoromethyl)-1H-pyrrole-2-carboxylic acid amide], the inhibition at 3 µM was > 95%. CN(CC(C)(C)C)C(=O)c1c(-c2ccc(Cl)cc2)cc(C(F)(F)F)n1Cc1ccc(F)cc1 [SC-261, 3-(4-Chlorophenyl)-N-(2,2-dimethyl-propyl)-1-[(4-fluorophenyl)-methyl]-N-methyl-5-(trifluoromethyl)-1H-pyrrole-2-carboxylic acid amide] showed an inhibition at 3 µM of 75 to 95%. CN(CC1(C)COC1)C(=O)c1c(-c2ccc(Cl)cc2)cc(C(F)(F)F)n1Cc1ccccc1 [SC-78, 1-Benzyl-3-(4-chlorophenyl)-N-methyl-N-[(3-methyl-oxetan-3-yl)-methyl]-5-(trifluoromethyl)-1H-pyrrole-2-carboxylic acid amide] was tested, and the inhibition at 3 µM was > 95%. In the case of CN(CC1CCC[C@H]1O)C(=O)c1c(-c2ccc(Cl)cc2)cc(C(F)(F)F)n1Cc1ccccc1 (stereo partly drawn) [SC-200, 1-Benzyl-3-(4-chlorophenyl)-N-[[(2R)-2-hydroxy-cyclopentyl]-methyl]-N-methyl-5-(trifluoromethyl)-1H-pyrrole-2-carboxylic acid amide], the inhibition at 3 µM is reported as > 95%. Cc1c(-c2ccc(Cl)cc2F)c(C(=O)N(C)CC(C)(C)S(C)(=O)=O)n(Cc2ccccc2)c1C(F)(F)F [SC-168, 1-Benzyl-3-(4-chloro-2-fluoro-phenyl)-N,4-dimethyl-N-(2-methyl-2-methylsulfonyl-propyl)-5-(trifluoromethyl)-1H-pyrrole-2-carboxylic acid amide] was tested, and the inhibition at 3 µM was > 95%. Work on Cc1c(-c2ccc(C(F)(F)F)cc2)c(C(=O)N2CCOCC2)n(Cc2ccccc2)c1C(F)(F)F [SC-102, [1-Benzyl-4-methyl-5-(trifluoromethyl)-3-[4-(trifluoromethyl)-phenyl]-1H-pyrrol-2-yl]-morpholin-4-yl-methanone] yielded an inhibition at 3 µM of 75 to 95%. For Cc1c(-c2ccc(Cl)cc2)c(C(=O)N(C)C2CCN(C)CC2)n(Cc2ccccc2)c1C(F)(F)F [SC-39, 1-Benzyl-3-(4-chlorophenyl)-N,4-dimethyl-N-(1-methyl-piperidin-4-yl)-5-(trifluoromethyl)-1H-pyrrole-2-carboxylic acid amide], the inhibition at 3 µM was > 95%. With Cc1c(-c2ccc(Cl)cc2)c(C(=O)N(C)CC(C)(C)C)n(Cc2cccc(Cl)c2)c1C(F)(F)F [SC-53, 3-(4-Chlorophenyl)-1-[(3-chlorophenyl)-methyl]-N-(2,2-dimethyl-propyl)-N,4-dimethyl-5-(trifluoromethyl)-1H-pyrrole-2-carboxylic acid amide] the inhibition at 3 µM was 75 to 95%. In the case of CN(CC(C)(C)C)C(=O)c1c(-c2ccc(Cl)cc2)cc(C(F)(F)F)n1Cc1cccc(Cl)c1 [SC-71, 3-(4-Chlorophenyl)-1-[(3-chlorophenyl)-methyl]-N-(2,2-dimethyl-propyl)-N-methyl-5-(trifluoromethyl)-1H-pyrrole-2-carboxylic acid amide], the inhibition at 3 µM is reported as 75 to 95%. Cc1c(-c2ccc(F)cc2)c(C(=O)N2CC(O)C2)n(Cc2ccccc2)c1C(F)(F)F [SC-223, [1-Benzyl-3-(4-fluorophenyl)-4-methyl-5-(trifluoromethyl)-1H-pyrrol-2-yl]-(3-hydroxy-azetidin-1-yl)-methanone] was tested, and the inhibition at 3 µM was 75 to 95%. With Cc1c(-c2ccc(Cl)cc2)c(C(=O)N(C)CCS(=O)(=O)C(C)C)n(Cc2ccccc2)c1C(F)(F)F [SC-130, 1-Benzyl-3-(4-chlorophenyl)-N-[2-(isopropylsulfonyl)-ethyl]-N,4-dimethyl-5-(trifluoromethyl)-1H-pyrrole-2-carboxylic acid amide] the inhibition at 3 µM was > 95%. Cc1c(-c2ccc(Cl)cc2)c(C(=O)N2CCOC(=O)C2)n(Cc2ccccc2)c1C(F)(F)F [SC-50, 4-[1-Benzyl-3-(4-chlorophenyl)-4-methyl-5-(trifluoromethyl)-1H-pyrrole-2-carbonyl]-morpholin-2-one] gave an inhibition at 3 µM of 75 to 95%. With Cc1c(-c2ccc(Cl)c(F)c2)c(C(=O)N(C)CCS(C)(=O)=O)n(Cc2ccccc2)c1C(F)(F)F [SC-244, 1-Benzyl-3-(4-chloro-3-fluoro-phenyl)-N,4-dimethyl-N-(2-methylsulfonyl-ethyl)-5-(trifluoromethyl)-1H-pyrrole-2-carboxylic acid amide] the inhibition at 3 µM was 75 to 95%. For CS(=O)(=O)CCNC(=O)c1c(-c2ccc(Cl)cc2)cc(C(F)(F)F)n1Cc1ccccc1 [SC-191, 1-Benzyl-3-(4-chlorophenyl)-N-(2-methylsulfonyl-ethyl)-5-(trifluoromethyl)-1H-pyrrole-2-carboxylic acid amide], the inhibition at 3 µM was 75 to 95%. Cc1c(-c2ccc(F)c(Cl)c2)c(C(=O)N(C)CCS(C)(=O)=O)n(Cc2ccccc2)c1C(F)(F)F [SC-252, 1-Benzyl-3-(3-chloro-4-fluoro-phenyl)-N,4-dimethyl-N-(2-methylsulfonyl-ethyl)-5-(trifluoromethyl)-1H-pyrrole-2-carboxylic acid amide] was tested, and the inhibition at 3 µM was > 95%. In the case of CN(C(=O)c1c(-c2ccc(Cl)cc2)cc(C(F)(F)F)n1Cc1ccccc1)C1CCS(=O)(=O)CC1 [SC-193, 1-Benzyl-3-(4-chlorophenyl)-N-(1,1-dioxo-thian-4-yl)-N-methyl-5-(trifluoromethyl)-1H-pyrrole-2-carboxylic acid amide], the inhibition at 3 µM is reported as > 95%. In the case of Cc1c(-c2ccc(OCC(F)(F)F)cc2)c(C(=O)N(C)CC(C)(C)C)n(Cc2ccccc2)c1C(F)(F)F [SC-260, 1-Benzyl-N,4-dimethyl-N-neopentyl-3-(4-(2,2,2-trifluoroethoxy)phenyl)-5-(trifluoromethyl)-1H-pyrrole-2-carboxamide], the inhibition at 3 µM is reported as 40 to 75%. With Cc1cnc(CN(C)C(=O)c2c(-c3ccc(Cl)cc3)c(C)c(C(F)(F)F)n2Cc2ccccc2)cn1 [SC-151, 1-Benzyl-3-(4-chlorophenyl)-N,4-dimethyl-N-[(5-methyl-pyrazin-2-yl)-methyl]-5-(trifluoromethyl)-1H-pyrrole-2-carboxylic acid amide] the inhibition at 3 µM was > 95%. CC(=O)NCCN(C)C(=O)c1c(-c2ccc(Cl)cc2)c(C)c(C(F)(F)F)n1Cc1ccccc1 [SC-37, N-(2-Acetylamino-ethyl)-1-benzyl-3-(4-chlorophenyl)-N,4-dimethyl-5-(trifluoromethyl)-1H-pyrrole-2-carboxylic acid amide] was tested, and the inhibition at 3 µM was > 95%. Work on Cc1c(-c2ccc(Cl)cc2F)c(C(=O)N2CC(F)(F)C2)n(Cc2ccccc2)c1C(F)(F)F [SC-100, [1-Benzyl-3-(4-chloro-2-fluoro-phenyl)-4-methyl-5-(trifluoromethyl)-1H-pyrrol-2-yl]-(3,3-difluoro-azetidin-1-yl)-methanone] yielded an inhibition at 3 µM of 75 to 95%. In the case of Cc1c(-c2ccc(Cl)cc2)c(C(=O)N(C)CC2CCOCC2)n(Cc2ccccc2)c1C(F)(F)F [SC-21, 1-Benzyl-3-(4-chlorophenyl)-N,4-dimethyl-N-(tetrahydro-pyran-4-yl-methyl)-5-(trifluoromethyl)-1H-pyrrole-2-carboxylic acid amide], the inhibition at 3 µM is reported as > 95%. Cc1c(-c2ccc(Cl)cc2F)c(C(=O)N2CCCC2CS(C)(=O)=O)n(Cc2ccccc2)c1C(F)(F)F (stereo not drawn) [SC-162, [1-Benzyl-3-(4-chloro-2-fluoro-phenyl)-4-methyl-5-(trifluoromethyl)-1H-pyrrol-2-yl]-[2-(methylsulfonyl-methyl)-pyrrolidin-1-yl]-methanone] was tested, and the inhibition at 3 µM was > 95%. For Cc1c(-c2ccc(Cl)c(F)c2)c(C(=O)N(C)CC(C)(C)CO)n(Cc2ccccc2)c1C(F)(F)F [SC-243, 1-Benzyl-3-(4-chloro-3-fluoro-phenyl)-N-(3-hydroxy-2,2-dimethyl-propyl)-N,4-dimethyl-5-(trifluoromethyl)-1H-pyrrole-2-carboxylic acid amide], the inhibition at 3 µM was > 95%. For CN(Cc1ccncn1)C(=O)c1c(-c2ccc(Cl)cc2)cc(C(F)(F)F)n1Cc1ccccc1 [SC-207, 1-Benzyl-3-(4-chlorophenyl)-N-methyl-N-(pyrimidin-4-yl-methyl)-5-(trifluoromethyl)-1H-pyrrole-2-carboxylic acid amide], the inhibition at 3 µM was > 95%. With CN(CC(C)(C)O)C(=O)c1c(-c2ccc(Cl)cc2)cc(C(F)(F)F)n1Cc1ccccc1 [SC-68, 1-Benzyl-3-(4-chlorophenyl)-N-(2-hydroxy-2-methyl-propyl)-N-methyl-5-(trifluoromethyl)-1H-pyrrole-2-carboxylic acid amide] the inhibition at 3 µM was > 95%.
